Assay results published in the supplement of paper PMC5908809.

Legend:
[1] = system: normal NK cells expanded with K562-aAPC; assay: drug sensitivity score (DSS) (DSS units); higher = more sensitive; extreme values may be limits of the assay; settings: 72 h; IL-2 2.5 ng/mL
Description: (§1)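 Drug sensitivity and resistance testing on K562-aAPC-expanded normal NK cells: 5 concentrations (10-fold steps over a 10,000-fold range), 72 h at 37 °C, viability by CellTiter-Glo normalised to DMSO and benzethonium chloride controls; DSS from the fitted curve.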

[2] = system: normal primary NK cells, pool 1 (3 donors), resting (IL-2 0 ng/mL); assay: percent inhibition of viability; higher = more inhibition; settings: 72 h
[3] = system: normal primary NK cells, pool 1 (3 donors) (IL-2 2.5 ng/mL); assay: as above; settings: 72 h
[4] = system: KAI3 (IL-2 2.5 ng/mL); assay: as above; settings: 72 h
[5] = system: YT (IL-2 2.5 ng/mL); assay: as above; settings: 72 h
[6] = system: NKL (IL-2 2.5 ng/mL); assay: as above; settings: 72 h
[7] = system: NK-92 (IL-2 2.5 ng/mL); assay: as above; settings: 72 h
[8] = system: DERL-7 (IL-2 2.5 ng/mL); assay: as above; settings: 72 h
[9] = system: normal primary NK cells, pool 2 (3 donors) (IL-2 2.5 ng/mL); assay: as above; settings: 72 h
[10] = system: normal primary NK cells, pool 3 (3 donors) (IL-2 2.5 ng/mL); assay: as above; settings: 72 h
[11] = system: NK-YS (IL-2 2.5 ng/mL); assay: as above; settings: 72 h
[12] = system: SNK-6 (IL-2 2.5 ng/mL); assay: as above; settings: 72 h
[13] = system: KHYG-1 (IL-2 2.5 ng/mL); assay: as above; settings: 72 h
[14] = system: IMC-1 (IL-2 20 ng/mL); assay: as above; settings: 72 h
[15] = system: normal NK cells expanded with K562-aAPC; assay: as above; settings: 72 h, IL-2 2.5 ng/mL
Description: as §1

[16] = system: normal primary NK cells, pool 1 (3 donors), resting (IL-2 0 ng/mL); assay: drug sensitivity score (DSS) (DSS units); higher = more sensitive; extreme values may be limits of the assay; settings: 72 h
[17] = system: normal primary NK cells, pool 1 (3 donors) (IL-2 2.5 ng/mL); assay: as above; settings: 72 h
[18] = system: KAI3 (IL-2 2.5 ng/mL); assay: as above; settings: 72 h
[19] = system: YT (IL-2 2.5 ng/mL); assay: as above; settings: 72 h
[20] = system: NKL (IL-2 2.5 ng/mL); assay: as above; settings: 72 h
[21] = system: NK-92 (IL-2 2.5 ng/mL); assay: as above; settings: 72 h
[22] = system: DERL-7 (IL-2 2.5 ng/mL); assay: as above; settings: 72 h
[23] = system: normal primary NK cells, pool 2 (3 donors) (IL-2 2.5 ng/mL); assay: as above; settings: 72 h
[24] = system: normal primary NK cells, pool 3 (3 donors) (IL-2 2.5 ng/mL); assay: as above; settings: 72 h
[25] = system: NK-YS (IL-2 2.5 ng/mL); assay: as above; settings: 72 h
[26] = system: SNK-6 (IL-2 2.5 ng/mL); assay: as above; settings: 72 h
[27] = system: KHYG-1 (IL-2 2.5 ng/mL); assay: as above; settings: 72 h
[28] = system: IMC-1 (IL-2 20 ng/mL); assay: as above; settings: 72 h

COc1cc(OC2CCN(C)CC2)ccc1Nc1ncc2c(n1)n(C1CCCC1)c(=O)n2C [AZ 3146] (max concentration tested 10000 nM)
Settings	drug sensitivity score
[1]	5.96
[16]	6.04
[17]	4.98
[18]	9.06
[19]	7.34
[20]	7.26
[21]	2.49
[22]	7.08
[23]	5.18
[24]	5.18
[25]	8.24
[26]	7.53
[27]	7.83
[28]	7.02

percent inhibition of viability [%]
Settings	1 nM	10 nM	100 nM	1000 nM	10000 nM
[2]	8.87	-6.36	1.82	9.09	81.8
[3]	-2.73	-14.2	-10.5	0.05	89.1
[4]	-6.95	-0.01	1.16	23.6	97.9
[5]	2.24	1.06	7.18	13.3	92.1
[6]	-14.9	-7.34	-5.85	12.7	92.9
[7]	0.39	-0.68	10.8	-7.78	55.7
[8]	-4.12	4.05	2.89	9.9	98.6
[9]	-14.1	-0.67	12.1	6.73	74.2
[10]	-14.2	1.88	2.52	5.03	80
[11]	1	1.98	6.37	19	93.4
[12]	16.5	16.6	28.5	15.2	90
[13]	3.47	1.13	9.55	13.1	104
[14]	-1.3	2.72	8.86	9.14	100
[15]	-2.2	0.53	-2.22	4.68	95.5

O=P1(N(CCCl)CCCl)NCCCO1 (stereo not given) [Cyclophosphamide] (max concentration tested 40000 nM)
Settings	drug sensitivity score
[1]	1.42
[16]	6.32
[17]	1.52
[18]	3.77
[19]	0
[20]	0
[21]	0
[22]	0
[23]	1.01
[24]	0.44
[25]	0
[26]	0
[27]	0
[28]	0

percent inhibition of viability [%]
Settings	4 nM	40 nM	400 nM	4000 nM	40000 nM
[2]	-3.08	-15.2	-6.52	18.4	64.8
[3]	-10.4	-10.4	-10.4	1.26	30.9
[4]	-3.45	3.79	4.87	17.2	40.9
[5]	-4.55	-6.6	-7.59	-8.95	-8.31
[6]	-11.1	-8.19	-4.09	-3.02	8.99
[7]	-18.2	-9.83	-4.39	-1.7	10.6
[8]	-4.46	-3.5	-1.09	-0.28	5.07
[9]	-11	-0.5	-0.82	2.11	21.8
[10]	-7.23	-5.67	-9.18	0.96	16.7
[11]	-5.26	-6.65	-2.31	-4.3	5.51
[12]	7.84	-6.82	9.06	-4.15	10.8
[13]	-3.97	-6.87	-6.42	-6.18	-3.6
[14]	-3.57	-3.7	-1.67	-7.03	-3.85
[15]	1.23	-1.48	-6.12	-0.37	32.1

N#Cc1ccc(COC[C@H]2O[C@@H](n3c(NCc4ccc(Cl)c(Cl)c4)nc4c(N)ncnc43)[C@H](O)[C@@H]2O)cc1 (max concentration tested 10000 nM)
Settings	drug sensitivity score
[1]	0.38
[16]	3.54
[17]	0.69
[18]	3.83
[19]	5.18
[20]	0
[21]	3.57
[22]	2.63
[23]	0.06
[24]	0
[25]	6.65
[26]	5.74
[27]	5.29
[28]	4.46

percent inhibition of viability [%]
Settings	1 nM	10 nM	100 nM	1000 nM	10000 nM
[2]	-3.74	-9.12	7.84	15.3	41
[3]	-6.38	-11.1	5.83	5.84	18.5
[4]	1.01	1.02	-1.36	17.5	34.8
[5]	2.07	0.4	-2.55	12.2	59
[6]	4.1	5.28	-8.68	9.7	9.11
[7]	-0.8	4.51	-4.4	7.42	45.2
[8]	4.78	2.63	2.42	7.67	32.1
[9]	-10.6	-2.26	-3.97	-0.12	12.3
[10]	-13.6	-13.5	-14	-9.19	-0.46
[11]	-1.65	1.3	-0.1	21.7	64.4
[12]	5.72	12.3	-10.3	21.8	52.5
[13]	-2.11	-1.26	0.87	11.4	62.4
[14]	-1.92	-0.39	-4.01	-16.8	97.2
[15]	-3.56	-7.9	-9.32	1.88	14.8

COc1c(C)cnc(Cn2cnc3c(Cl)nc(N)nc32)c1C [BIIB021] (max concentration tested 10000 nM)
Settings	drug sensitivity score
[1]	25.3
[16]	8.4
[17]	17.8
[18]	27.3
[19]	22.8
[20]	21.3
[21]	24.4
[22]	25.7
[23]	20.3
[24]	16.6
[25]	25.3
[26]	28
[27]	26.8
[28]	22

percent inhibition of viability [%]
Settings	1 nM	10 nM	100 nM	1000 nM	10000 nM
[2]	15.4	12.6	10.4	36.1	51
[3]	-3.67	7.97	27.8	79	88
[4]	-2.5	4.1	75.8	98.8	102
[5]	-3.19	-0.41	48.3	90.5	94.5
[6]	-6.72	-10.3	45.6	85.8	86.2
[7]	-8.24	-13.2	51.8	95.9	101
[8]	2.38	6.56	62.9	99.9	101
[9]	-9.44	-10.5	39.7	81.5	83.5
[10]	-13.8	-15	16.2	78.9	87.8
[11]	0.34	0.63	61.5	97.2	102
[12]	19	-3.8	92.6	91	90.3
[13]	-2.8	-2.89	77.1	99.3	104
[14]	1.18	-3.95	26.6	99.6	101
[15]	-1.27	-2.67	62.1	98.6	100

O=C(/C=C/c1cccc(S(=O)(=O)Nc2ccccc2)c1)NO [Belinostat] (max concentration tested 10000 nM)
Settings	drug sensitivity score
[1]	20.8
[16]	22.9
[17]	22.5
[18]	24.1
[19]	20.1
[20]	20.9
[21]	24.5
[22]	21.6
[23]	21.2
[24]	20.1
[25]	20.9
[26]	21.7
[27]	22.9
[28]	21.2

percent inhibition of viability [%]
Settings	1 nM	10 nM	100 nM	1000 nM	10000 nM
[2]	-4.94	0.46	53.2	87.1	91.7
[3]	3.19	9.82	43.7	96.4	98.7
[4]	7.26	14.3	51.9	94.6	109
[5]	4.17	3.96	11.8	105	109
[6]	5.5	10.4	37.5	87.9	108
[7]	5.07	14.1	52.2	107	106
[8]	-0.73	5.09	23.1	100	101
[9]	-8.09	0.56	31	93.9	95.6
[10]	-2.35	-1.35	15.5	96.3	98.3
[11]	-1.97	-1.76	21	97.5	109
[12]	-0.17	-5.01	28.3	97.2	101
[13]	-0.75	-0.46	35	108	110
[14]	2.36	-0.13	20.2	99.6	101
[15]	0.58	6.04	16.8	99.6	101
